The subject of this test is BDNF plasma levels. Nature of the test: Plasma BDNF by ELISA in healthy fasted subjects after a single oral dose. It counts as in vivo, human. Conditions: 50 mg single dose, five healthy subjects (FIG. 2). (An ELISA detects its analyte on a solid surface through an enzyme-linked reagent.)

SMILES strings stand for the structures.

The values that follow come from patent publication US12558393B2, “Compositions and methods of BDNF activation” (VDF Futureceuticals, Inc., priority 2013, dated 2026).

As to `O=C(/C=C/c1ccc(O)c(O)c1)O[C@@H]1C[C@](O)(C(=O)O)C[C@@H](O)[C@H]1O` [chlorogenic acid], the “blood level of BDNF, increase” value is recorded as “did not increase blood level of BDNF in a statistically significant manner”.
